Publication PMC4067742, “Direct Observations of Amyloid β Self-Assembly in Live Cells Provide Insights into Differences in the Kinetics of Aβ(1–40) and Aβ(1–42) Aggregation” (Chemistry & Biology, 2014)
“And” between values parts separate entries of the source, which are not always exact repeats. Identical values can stand only once.

Tests used:
[1] = test system: SH-SY5Y cells; experiment: Live cell FLIM of intracellular aggregation; format: cell-based, human; conditions: 500 nM peptide in culture medium; for lag phase of intracellular aggregation: 0–48 hr, live cell FLIM (Figure 4D)
Source text: Having established that the fluorescence lifetime of HF488 acts as a reporter of amyloid formation of Aβ(1–40) and Aβ(1–42), we set out to investigate how the aggregation state of each of the two peptide isoforms is affected by its cellular uptake and accumulation in acidic organelles in SH-SY5Y cells. Using FLIM, we observed that there are no significant differences (p = 0.95, Table S1) in the fluorescence lifetimes of extracellular and internalized ^HF488Aβ(1–40) during the first 6 hr after application of 500 nM peptide to the culture medium (Figures 4A and 4D), indicating the presence of similar ^HF488Aβ(1–40) species within the cells as those applied to the extracellular environment. […] We then examined the cells treated with the same concentration of ^HF488Aβ(1–40) for 24 and 48 hr (Figures 4C and 4D), washing them prior to imaging to remove any extracellular fluorescence. […] The difference compared with the extracellular starting value, however, is statistically significant first after 48 hr (p = 0.0032, Table S1). […]
All FLIM experiments were carried out using HF488-labeled Aβ peptides, and images were recorded by time-correlated single photon counting (TCSPC) using a confocal microscopy platform built on an Olympus Fluoview FV300 confocal scan unit. […] The excitation beam was reflected onto the sample with a 20/80 broad bandwidth coated beam splitter so that 20% of the excitation light passed on to the sample and 80% of the fluorescence signal was reflected toward the confocal pinhole. The fluorescence light was passed through a 515-nm Semrock long-pass filter (Laser 2000) and passed onto a fast photomultiplier tube (PMC-100, Becker & Hickl). Lifetimes were recorded using TCSPC circuitry (SPC-830, Becker & Hickl). […] The instrument response was measured using reflected light from either a coverslip or a coated mirror. […]

[2] = test system: trypsin; experiment: Fluorescence lifetime after trypsin treatment of the labeled peptide; format: physicochemical; conditions: trypsin-treated monomeric peptide, cleavage into short fragments; FLIM; mean ± SD
Source text: For the HF488 dye to function as a direct reporter of amyloid formation in vivo, its fluorescence lifetime must respond to the conformational changes associated with amyloid formation but remain largely unaffected by extrinsic factors, such as the solution conditions that the Aβ peptides may encounter in the living cell. […] That is, it is insensitive to pH changes in this range. […] Furthermore, the fluorescence lifetime of the unconjugated HF488 dye (4.0 ± 0.1 ns) is longer than that of the Aβ-conjugated dye (3.7 ± 0.05 ns), perhaps as a result of interactions between the dye and the polypeptide chain in the latter case ([Chen et al., 2010]). […]
All FLIM experiments were carried out using HF488-labeled Aβ peptides, and images were recorded by time-correlated single photon counting (TCSPC) using a confocal microscopy platform built on an Olympus Fluoview FV300 confocal scan unit. […] The excitation beam was reflected onto the sample with a 20/80 broad bandwidth coated beam splitter so that 20% of the excitation light passed on to the sample and 80% of the fluorescence signal was reflected toward the confocal pinhole. The fluorescence light was passed through a 515-nm Semrock long-pass filter (Laser 2000) and passed onto a fast photomultiplier tube (PMC-100, Becker & Hickl). Lifetimes were recorded using TCSPC circuitry (SPC-830, Becker & Hickl). […]

| Substance | lag phase of intracellular aggregation [1] | mean fluorescence lifetime after trypsin treatment [2] | endpoint value of intracellular fluorescence lifetime ([1]; endpoint (48h, p = 0.22 Table S2), cells washed once, live cell FLIM) |
| --- | --- | --- | --- |
| ^HF488Aβ(1–42): Synthetic 42-residue amyloid β peptide labeled at the N terminus with Hilyte Fluor 488, purchased from Anaspec | shows no such effect |  |  |
| ^HF488Aβ(1–40): Synthetic 40-residue amyloid β peptide labeled at the N terminus with Hilyte Fluor 488, purchased from Anaspec | appears to exhibit a lag phase | 4.0 ± 0.1 ns | 3.35 ± 0.2 ns and 3.31 ± 0.2 ns |
